Consider 1 compound from ChEMBL document CHEMBL1148572, “1-((S)-2-aminopropyl)-1H-indazol-6-ol: a potent peripherally acting 5-HT2 receptor agonist with ocular hypotensive activity” (J Med Chem, 2006).

The target of series [1] is Glutamate receptor ionotropic AMPA (Homo sapiens) (UniProt P48058+P42263+P42262+P42261). The series is described as follows: Inhibition of AMPA receptor at 1 nM. Format: protein-complex assay.
Series [2] deals with Glutamate [NMDA] receptor (Homo sapiens) (UniProt Q05586+Q12879+Q13224+O15399+O60391+Q14957+Q8TCU5). The series can be described thus: Inhibition of agonist site of NMDA receptor at 10 uM. In kind it is functional.
Series [3] concerns the target Muscarinic acetylcholine receptor (Homo sapiens) (UniProt P20309+P08173+P11229+P08172+P08912). The series is described as follows: Inhibition of non selective binding to muscarinic receptor at 100 nM. Format: protein assay.
Series [4] addresses T1, monoamine oxidase B (MAO-B) (Rattus norvegicus, UniProt P19643).
T1 sequence (P19643 whole entry): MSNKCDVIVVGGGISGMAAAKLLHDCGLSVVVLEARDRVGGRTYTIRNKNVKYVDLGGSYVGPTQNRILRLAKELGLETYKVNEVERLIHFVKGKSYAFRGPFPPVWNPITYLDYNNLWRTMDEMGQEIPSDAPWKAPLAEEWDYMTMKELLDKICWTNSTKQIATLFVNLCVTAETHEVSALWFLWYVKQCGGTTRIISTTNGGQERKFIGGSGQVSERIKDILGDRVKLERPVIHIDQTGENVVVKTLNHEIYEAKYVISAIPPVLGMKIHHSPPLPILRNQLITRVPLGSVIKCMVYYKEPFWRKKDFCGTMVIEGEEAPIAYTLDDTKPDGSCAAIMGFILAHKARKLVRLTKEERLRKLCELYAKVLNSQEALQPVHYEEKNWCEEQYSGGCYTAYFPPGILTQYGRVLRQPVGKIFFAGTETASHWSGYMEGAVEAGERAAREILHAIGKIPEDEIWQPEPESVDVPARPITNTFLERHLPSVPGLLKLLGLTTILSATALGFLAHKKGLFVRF
The series can be described thus: Inhibition of monoamine oxidase B in rat brain at 1 nM. Format: tissue-based.

Series [5] concerns the target Voltage-dependent N-type calcium channel subunit alpha-1B (Homo sapiens) (UniProt Q00975). The series is described as follows: Inhibitory activity at Calcium channel N type at 10 uM.
Series [6] can be described thus: Inhibitory activity at calcium activated potassium channel 6 at 1 nM.
Series [7] can be described thus: Inhibitory activity at site 2 of sodium channel at 1 nM.
Series [8] deals with T2, Atrial natriuretic peptide receptor 1 (Homo sapiens) (UniProt P16066).
T2 sequence (whole entry): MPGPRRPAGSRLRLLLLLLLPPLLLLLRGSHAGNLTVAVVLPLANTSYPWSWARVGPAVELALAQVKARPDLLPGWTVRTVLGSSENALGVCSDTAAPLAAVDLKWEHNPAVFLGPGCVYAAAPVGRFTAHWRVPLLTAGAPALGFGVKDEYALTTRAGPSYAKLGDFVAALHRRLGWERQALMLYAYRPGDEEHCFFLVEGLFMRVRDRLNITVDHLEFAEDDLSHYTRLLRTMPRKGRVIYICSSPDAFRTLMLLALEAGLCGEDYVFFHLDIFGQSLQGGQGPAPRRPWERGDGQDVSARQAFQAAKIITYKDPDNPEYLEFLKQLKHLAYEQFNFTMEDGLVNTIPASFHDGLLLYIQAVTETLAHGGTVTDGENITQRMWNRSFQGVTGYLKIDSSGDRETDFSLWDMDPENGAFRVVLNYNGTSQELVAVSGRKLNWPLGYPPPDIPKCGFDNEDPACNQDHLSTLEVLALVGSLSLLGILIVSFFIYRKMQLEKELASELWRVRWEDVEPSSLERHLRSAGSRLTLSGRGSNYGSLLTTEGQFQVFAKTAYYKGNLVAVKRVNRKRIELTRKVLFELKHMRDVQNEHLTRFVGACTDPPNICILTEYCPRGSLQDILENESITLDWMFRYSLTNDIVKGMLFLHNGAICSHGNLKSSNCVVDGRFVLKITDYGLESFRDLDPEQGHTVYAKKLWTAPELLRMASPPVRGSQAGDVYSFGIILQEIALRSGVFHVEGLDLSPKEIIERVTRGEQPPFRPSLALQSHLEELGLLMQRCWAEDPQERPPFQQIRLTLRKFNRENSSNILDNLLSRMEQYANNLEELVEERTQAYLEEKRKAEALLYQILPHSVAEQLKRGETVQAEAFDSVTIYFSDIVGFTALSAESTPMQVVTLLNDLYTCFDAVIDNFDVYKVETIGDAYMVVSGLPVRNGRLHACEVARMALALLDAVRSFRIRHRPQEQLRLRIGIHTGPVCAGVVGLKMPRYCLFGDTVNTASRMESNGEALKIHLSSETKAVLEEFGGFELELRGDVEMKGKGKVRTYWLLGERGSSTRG
The series can be described thus: Inhibition of ANP A at 100 nM.

The target in series [9] is Adenosine receptor (Homo sapiens) (UniProt P30542+P29275+P0DMS8+P29274). The series can be described thus: Inhibition of non selective binding to adenosine receptor at 1 nM. In kind it is protein assay.
Chain of Adenosine receptor (Homo sapiens) (P0DMS8 whole entry, looked up): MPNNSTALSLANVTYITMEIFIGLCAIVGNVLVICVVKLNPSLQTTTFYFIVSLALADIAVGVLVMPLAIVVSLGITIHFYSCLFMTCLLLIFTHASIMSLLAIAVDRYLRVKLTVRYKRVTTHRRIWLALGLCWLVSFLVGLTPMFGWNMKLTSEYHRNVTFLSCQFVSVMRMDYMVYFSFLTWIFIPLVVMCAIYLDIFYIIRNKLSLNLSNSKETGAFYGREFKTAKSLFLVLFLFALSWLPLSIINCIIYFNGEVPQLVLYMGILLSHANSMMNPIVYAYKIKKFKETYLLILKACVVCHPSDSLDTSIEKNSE
Chain of Adenosine receptor (Homo sapiens) (P29274 whole entry, looked up): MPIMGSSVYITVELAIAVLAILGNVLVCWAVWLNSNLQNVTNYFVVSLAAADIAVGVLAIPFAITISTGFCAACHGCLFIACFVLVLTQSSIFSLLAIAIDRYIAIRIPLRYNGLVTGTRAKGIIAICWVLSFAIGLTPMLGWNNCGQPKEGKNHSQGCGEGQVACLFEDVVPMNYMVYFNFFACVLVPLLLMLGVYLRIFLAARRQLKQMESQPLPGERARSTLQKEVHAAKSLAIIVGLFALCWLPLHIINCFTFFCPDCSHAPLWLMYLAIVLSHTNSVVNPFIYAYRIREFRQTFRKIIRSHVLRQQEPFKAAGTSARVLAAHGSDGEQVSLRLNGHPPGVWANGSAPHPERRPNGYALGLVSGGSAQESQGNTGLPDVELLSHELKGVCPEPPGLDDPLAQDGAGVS
Chain of Adenosine receptor (Homo sapiens) (P29275 whole entry, looked up): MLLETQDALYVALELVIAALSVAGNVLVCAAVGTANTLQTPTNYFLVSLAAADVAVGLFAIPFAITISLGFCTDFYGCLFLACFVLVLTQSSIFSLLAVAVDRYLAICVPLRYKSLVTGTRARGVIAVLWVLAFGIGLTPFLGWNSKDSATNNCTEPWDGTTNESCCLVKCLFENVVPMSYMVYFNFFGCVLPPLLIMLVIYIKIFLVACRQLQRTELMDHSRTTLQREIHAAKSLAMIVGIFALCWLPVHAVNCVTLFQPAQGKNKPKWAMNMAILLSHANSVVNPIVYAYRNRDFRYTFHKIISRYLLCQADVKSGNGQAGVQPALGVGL
Chain of Adenosine receptor (Homo sapiens) (P30542 whole entry, looked up): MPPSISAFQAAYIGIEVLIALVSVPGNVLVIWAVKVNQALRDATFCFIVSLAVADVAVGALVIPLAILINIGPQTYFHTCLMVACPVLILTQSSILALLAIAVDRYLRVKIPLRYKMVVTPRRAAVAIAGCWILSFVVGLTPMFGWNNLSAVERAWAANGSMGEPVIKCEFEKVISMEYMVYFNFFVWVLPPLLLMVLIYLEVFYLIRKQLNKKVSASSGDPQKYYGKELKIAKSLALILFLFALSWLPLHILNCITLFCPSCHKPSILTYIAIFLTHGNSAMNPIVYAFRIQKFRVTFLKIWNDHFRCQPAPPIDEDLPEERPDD
Series [10] in a line: Inhibition of P2Y purinergic receptor at 10 uM.
Series [11] addresses Sigma non-opioid intracellular receptor 1 (Homo sapiens) (UniProt Q99720). The series is described as follows: Inhibition of non selective binding to sigma receptor at 1 nM.
The target in series [12] is Sodium-dependent noradrenaline transporter (Homo sapiens, UniProt P23975). The series can be described thus: Inhibitory activity against NET.
Chain of Sodium-dependent noradrenaline transporter (P23975 whole entry): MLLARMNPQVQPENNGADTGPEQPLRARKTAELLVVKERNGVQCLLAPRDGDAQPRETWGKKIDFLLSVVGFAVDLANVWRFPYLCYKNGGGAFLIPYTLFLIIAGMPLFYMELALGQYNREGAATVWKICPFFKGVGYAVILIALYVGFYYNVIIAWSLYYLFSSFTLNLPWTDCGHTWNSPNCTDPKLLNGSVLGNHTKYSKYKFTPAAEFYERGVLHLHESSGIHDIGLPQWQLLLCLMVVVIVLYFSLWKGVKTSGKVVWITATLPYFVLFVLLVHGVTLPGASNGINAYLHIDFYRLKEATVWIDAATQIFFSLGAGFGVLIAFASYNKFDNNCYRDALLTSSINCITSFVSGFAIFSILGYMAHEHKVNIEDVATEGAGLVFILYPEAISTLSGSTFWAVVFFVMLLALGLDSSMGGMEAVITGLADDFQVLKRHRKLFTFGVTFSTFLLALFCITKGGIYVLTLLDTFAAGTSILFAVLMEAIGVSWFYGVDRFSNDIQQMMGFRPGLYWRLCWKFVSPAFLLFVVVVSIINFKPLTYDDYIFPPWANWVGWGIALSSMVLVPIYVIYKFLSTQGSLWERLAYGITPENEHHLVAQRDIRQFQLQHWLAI
The target in series [13] is Adrenergic receptor beta (Homo sapiens) (UniProt P08588+P07550+P13945). The series is described as follows: Inhibition of non selective binding to adrenergic beta receptor at 10 uM. Format: protein assay.
In series [14] the target is T3, 5-hydroxytryptamine receptor 2C (Rattus norvegicus) (UniProt P08909).
T3 sequence (whole entry): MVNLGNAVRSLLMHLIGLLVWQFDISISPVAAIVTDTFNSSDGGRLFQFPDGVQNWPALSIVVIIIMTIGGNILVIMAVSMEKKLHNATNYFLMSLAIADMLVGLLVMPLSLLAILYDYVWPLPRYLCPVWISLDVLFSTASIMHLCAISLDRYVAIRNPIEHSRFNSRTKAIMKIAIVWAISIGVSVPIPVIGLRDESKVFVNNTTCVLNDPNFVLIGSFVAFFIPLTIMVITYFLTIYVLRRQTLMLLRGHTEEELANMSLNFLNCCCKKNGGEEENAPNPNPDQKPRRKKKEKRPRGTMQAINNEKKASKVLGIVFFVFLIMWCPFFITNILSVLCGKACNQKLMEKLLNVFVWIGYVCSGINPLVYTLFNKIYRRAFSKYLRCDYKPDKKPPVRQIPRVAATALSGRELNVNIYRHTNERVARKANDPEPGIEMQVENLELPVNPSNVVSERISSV
The series can be described thus: Activity against recombinant rat 5HT2C mediated intracellular calcium mobilization by FLIPR in SR3T3 cells. A general note: Calcium flux is commonly read through the fluorescence of an indicator in the cells.

Chain of Sigma non-opioid intracellular receptor 1 (Homo sapiens) (Q99720 whole entry): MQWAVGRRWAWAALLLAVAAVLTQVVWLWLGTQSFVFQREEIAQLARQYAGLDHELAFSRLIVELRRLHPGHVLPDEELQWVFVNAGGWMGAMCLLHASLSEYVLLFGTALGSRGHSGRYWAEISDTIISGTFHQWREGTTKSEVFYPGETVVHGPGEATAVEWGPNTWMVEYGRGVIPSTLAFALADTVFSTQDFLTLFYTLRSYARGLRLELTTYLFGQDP
Chain of Voltage-dependent N-type calcium channel subunit alpha-1B (Homo sapiens) (Q00975 whole entry, looked up): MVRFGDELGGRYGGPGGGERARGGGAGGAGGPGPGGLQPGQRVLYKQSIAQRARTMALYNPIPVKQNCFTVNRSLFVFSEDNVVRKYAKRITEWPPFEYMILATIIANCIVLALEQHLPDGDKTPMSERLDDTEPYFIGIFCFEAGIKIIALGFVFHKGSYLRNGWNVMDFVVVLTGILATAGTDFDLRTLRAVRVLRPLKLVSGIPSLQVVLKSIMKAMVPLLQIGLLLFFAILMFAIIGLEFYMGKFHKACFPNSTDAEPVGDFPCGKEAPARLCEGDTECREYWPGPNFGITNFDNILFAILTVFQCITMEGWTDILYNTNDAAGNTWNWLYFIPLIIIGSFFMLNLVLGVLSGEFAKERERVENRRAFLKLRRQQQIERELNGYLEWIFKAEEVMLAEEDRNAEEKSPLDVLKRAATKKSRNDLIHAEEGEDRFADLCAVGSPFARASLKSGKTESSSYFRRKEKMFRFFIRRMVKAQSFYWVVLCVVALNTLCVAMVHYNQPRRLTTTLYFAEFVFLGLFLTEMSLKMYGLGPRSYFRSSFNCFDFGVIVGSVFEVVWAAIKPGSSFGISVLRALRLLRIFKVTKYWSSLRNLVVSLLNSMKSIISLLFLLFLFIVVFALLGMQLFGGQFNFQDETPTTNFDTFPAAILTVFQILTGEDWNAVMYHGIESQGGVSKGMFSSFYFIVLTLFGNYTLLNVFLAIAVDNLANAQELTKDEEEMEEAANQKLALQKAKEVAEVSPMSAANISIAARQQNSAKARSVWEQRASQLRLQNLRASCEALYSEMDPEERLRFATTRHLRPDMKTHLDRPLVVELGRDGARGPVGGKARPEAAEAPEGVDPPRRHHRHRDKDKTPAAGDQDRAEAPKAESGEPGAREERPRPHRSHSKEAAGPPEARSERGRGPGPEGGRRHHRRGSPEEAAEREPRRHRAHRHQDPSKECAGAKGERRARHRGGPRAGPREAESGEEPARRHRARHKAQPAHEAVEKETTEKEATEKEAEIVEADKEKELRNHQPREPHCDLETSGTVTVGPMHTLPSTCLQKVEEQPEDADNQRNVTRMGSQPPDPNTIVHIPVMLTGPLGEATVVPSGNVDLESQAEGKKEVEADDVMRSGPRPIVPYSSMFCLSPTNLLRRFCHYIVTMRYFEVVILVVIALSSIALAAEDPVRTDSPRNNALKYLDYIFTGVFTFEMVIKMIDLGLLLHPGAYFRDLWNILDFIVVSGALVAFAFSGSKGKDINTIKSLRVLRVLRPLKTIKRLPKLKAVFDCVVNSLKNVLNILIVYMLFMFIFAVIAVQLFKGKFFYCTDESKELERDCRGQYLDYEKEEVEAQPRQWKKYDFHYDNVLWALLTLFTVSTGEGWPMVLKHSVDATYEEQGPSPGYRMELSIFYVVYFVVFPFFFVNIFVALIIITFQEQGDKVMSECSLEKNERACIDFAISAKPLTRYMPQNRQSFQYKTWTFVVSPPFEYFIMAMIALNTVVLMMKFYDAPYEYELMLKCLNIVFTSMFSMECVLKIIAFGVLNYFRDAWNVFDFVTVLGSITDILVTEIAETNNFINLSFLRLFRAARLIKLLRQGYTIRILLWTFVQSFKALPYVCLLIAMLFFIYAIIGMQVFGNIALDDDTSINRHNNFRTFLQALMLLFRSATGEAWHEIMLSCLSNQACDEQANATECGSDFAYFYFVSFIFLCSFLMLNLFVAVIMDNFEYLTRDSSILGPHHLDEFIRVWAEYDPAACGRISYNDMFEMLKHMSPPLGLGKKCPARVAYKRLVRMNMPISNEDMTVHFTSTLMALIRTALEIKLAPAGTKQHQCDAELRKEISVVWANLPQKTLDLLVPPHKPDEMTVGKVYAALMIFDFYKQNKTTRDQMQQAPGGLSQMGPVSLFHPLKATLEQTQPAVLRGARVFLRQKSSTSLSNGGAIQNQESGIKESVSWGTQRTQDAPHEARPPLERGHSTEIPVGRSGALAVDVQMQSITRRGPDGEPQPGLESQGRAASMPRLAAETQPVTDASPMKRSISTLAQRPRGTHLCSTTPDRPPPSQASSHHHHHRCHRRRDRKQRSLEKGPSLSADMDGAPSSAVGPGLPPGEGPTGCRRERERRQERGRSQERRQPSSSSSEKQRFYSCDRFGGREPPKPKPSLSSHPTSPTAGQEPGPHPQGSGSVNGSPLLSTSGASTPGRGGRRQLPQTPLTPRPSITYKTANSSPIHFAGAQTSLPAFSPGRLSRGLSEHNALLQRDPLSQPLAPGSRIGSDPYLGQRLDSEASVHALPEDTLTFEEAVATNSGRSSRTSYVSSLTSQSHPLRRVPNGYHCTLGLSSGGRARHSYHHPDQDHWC

Consider `C[C@H](N)Cn1ncc2ccc(O)cc21`, for which the inhibition – broadly, the change of the read-out against control, counted positive when it falls – in [1] amounted to 9.31%; in [2] it was 9.07%; in series [3], 0.28%; in series [5] it was 15.4%; in [6], 10.4%; in series [7], 10.3%. The inhibition was 3.01% in series [8]; 11.2% in series [9]; 12.2% in [10]; -2.35% in series [11]; 30.4% in series [13]. Also, in [4], the inhibition at 0.001 µM is -15.4%. The inhibition constant Ki – broadly, the equilibrium dissociation constant of an inhibitor or competing ligand from its target – in series [12] was over 10 µM. In addition, in series [14], the maximal effect (Emax) (as a rule, the maximal effect, on the per cent scale that the assay sets) was found to be 89%.
